Test results: patent publication US5514704A, “Benzothiophenes to inhibit leukotrienes” (Eli Lilly and Company, priority 1995, dated 1996)

Assays:
5-lipoxygenase = biological target: T1, 5-lipoxygenase (Homo sapiens, UniProt P09917); test: 5-Lipoxygenase (5-LPO) Assay: inhibition of leukotriene B4 formation by human neutrophil 20,000×g supernatant; assay type: biochemical
T1 construct: The resultant supernatant containing the cytosolic 5-lipoxygenase activity is stored frozen; from tissue; host or cells: peripheral blood neutrophils, 20,000×g supernatant of sonicate
T1 sequence (P09917 1-674): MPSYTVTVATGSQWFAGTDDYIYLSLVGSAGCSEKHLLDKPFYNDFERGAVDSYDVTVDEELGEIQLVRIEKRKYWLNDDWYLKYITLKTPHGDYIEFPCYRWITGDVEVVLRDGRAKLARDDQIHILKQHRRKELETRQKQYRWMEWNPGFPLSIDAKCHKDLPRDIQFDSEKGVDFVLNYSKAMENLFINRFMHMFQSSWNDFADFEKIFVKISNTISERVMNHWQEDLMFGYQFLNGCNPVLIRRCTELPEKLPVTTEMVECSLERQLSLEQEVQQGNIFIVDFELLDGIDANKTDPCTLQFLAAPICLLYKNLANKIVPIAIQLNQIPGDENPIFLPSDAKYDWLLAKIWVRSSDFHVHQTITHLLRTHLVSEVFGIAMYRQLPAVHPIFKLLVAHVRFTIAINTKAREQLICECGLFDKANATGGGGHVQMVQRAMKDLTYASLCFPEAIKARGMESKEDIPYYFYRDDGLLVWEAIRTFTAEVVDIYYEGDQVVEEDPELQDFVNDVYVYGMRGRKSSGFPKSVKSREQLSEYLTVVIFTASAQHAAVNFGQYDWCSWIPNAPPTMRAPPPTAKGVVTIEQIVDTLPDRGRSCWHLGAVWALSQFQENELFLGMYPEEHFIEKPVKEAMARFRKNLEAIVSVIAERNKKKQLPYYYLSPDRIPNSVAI
Protocol: To determine the effect of compounds on 5-lipoxygenase activity, peripheral blood neutrophils are separated by density centrifugation as described (Marder et al., Prostaglandins Leukot. and Essent. Fatty Acids 46, 265-270, 1992) and the cytosolic 5-lipoxygenase is prepared from isolated neutrophils according to a modification of Carter et al., (J. Pharmacolo Exp. Thero 256, 929-937 (1991)). Briefly, neutrophils are washed twice in buffer (in millimolar: PIPES, 10; BES, 10; and EDTA, 1; pH 6.8) and diluted to 2.5×10^7 cells/ml. Cells are disrupted with sonication and the cytosolic fraction obtained by centrifugation at 20,000×g for 20 min. at 4° C. The resultant supernatant containing the cytosolic 5-lipoxygenase activity is stored frozen at -70° C. prior to use. Compounds are evaluated for 5-lipoxygenase inhibitory activity. Varying concentration of compounds in 200 ml aliquots containing 50 ml of human 20,000×g supernatant in assay buffer (in millimolar: PIPES, 10; BES, 10; EDTA, 1; NaCl, 100; ATP, 1.56; and CaCl2, 2.5; pH 6.8) containing 3.0 mM AA are used. The reaction proceeds for 5 minutes at 37° C. and is terminated upon the addition of 50 ml EDTA (250 mM). The percent inhibition of leukotriene B4 is determined for each concentration of test compound as compared to vehicle (containing no compound) control. The concentration representing 50% inhibition (IC50) is determined by standard mathematical techniques. Leukotriene B4 is determined by EIA. EIA reagents were purchased from Caymen Chemical Co. (Ann Arbor, Mich.) and used according to the assay procedures as outlined therein.

cPLA2 [1] = biological target: T2, cPLA2 (Homo sapiens, UniProt P47712); test: cPLA2 Enzymatic Activity Assay, 14C-PC/DG liposome substrate; assay type: biochemical
T2 sequence (P47712 1-749): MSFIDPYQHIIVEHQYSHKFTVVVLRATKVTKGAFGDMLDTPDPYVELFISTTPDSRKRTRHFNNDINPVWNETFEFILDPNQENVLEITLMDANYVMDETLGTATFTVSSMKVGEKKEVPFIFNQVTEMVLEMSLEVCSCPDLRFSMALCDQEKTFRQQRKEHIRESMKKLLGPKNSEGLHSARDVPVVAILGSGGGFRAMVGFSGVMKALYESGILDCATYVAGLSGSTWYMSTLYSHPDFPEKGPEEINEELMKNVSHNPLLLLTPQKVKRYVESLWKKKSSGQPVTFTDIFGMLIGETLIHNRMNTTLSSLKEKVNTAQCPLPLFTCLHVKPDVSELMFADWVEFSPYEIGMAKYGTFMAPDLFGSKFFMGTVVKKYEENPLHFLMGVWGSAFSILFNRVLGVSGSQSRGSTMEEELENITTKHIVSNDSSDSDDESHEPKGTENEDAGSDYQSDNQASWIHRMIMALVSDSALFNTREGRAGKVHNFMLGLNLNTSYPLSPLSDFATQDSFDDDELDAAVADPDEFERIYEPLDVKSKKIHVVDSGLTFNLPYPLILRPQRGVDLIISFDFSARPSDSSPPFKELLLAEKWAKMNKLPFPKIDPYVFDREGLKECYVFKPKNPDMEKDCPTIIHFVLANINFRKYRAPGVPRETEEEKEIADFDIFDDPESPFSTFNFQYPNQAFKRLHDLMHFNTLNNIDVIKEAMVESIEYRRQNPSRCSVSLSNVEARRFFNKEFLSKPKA
Protocol: (§1) The substrate, sonicated liposomes containing 1-palmitoyl-2 ^14 C!arachidonoyl-sn-glycerol-3-phosphocholine ( ^14 C!PC, 55 mCi/mmol from NEN Research Products) and sn-1,2-dioleoylglycerol (DG, Avanti Polar Lipids, Birmingham, Ala.) at a molar ratio of 2:1, are prepared as follows. ^14 C!PC (20 nmol, 1×10^6 dpm, 50 uCi/ml in toluene/ethanol) and DG (10 nmol, 100 ug/ml in chloroform) are dried under nitrogen. The lipids are dispersed in 1 ml of 150 mM NaC1, 50 mM Hepes, pH 7.5 (assay buffer) by sonication at 4° C., with Microson probe-sonicator (Heat Systems Ultrasonics) for 4×15 seconds, with 45 second intervals. Bovine serum albumin (essentially fatty acid free, from a 100 mg/ml stock in water, Sigma) is added to a final concentration of 4 mg/ml. Samples to be assayed for cPLA2 activity are incubated with 50 ul liposomes (0.5 nmol ^14 C!PC, 50,000 dpm containing 0.25 nmol of DG) in a total volume of 0.2 ml of assay buffer containing 1 mM CaCl2 and 1 mM 2-ME. Incubations are carried out at 37° C. for 15 minutes and terminated by adding 2 ml of Dole's reagent (2-propanol/heptane/0.5M sulfuric acid, 40:10:1 containing 10 ug/ml of stearic acid). After mixing, 1.2 ml of heptane and 1 ml of water are added. The mixtures are briefly vortexed and the upper phase transferred to tubes containing 2 ml of heptane and 150 mg of Bio-Sil (Bio-Rad Laboratories) activated at 130° C. before use. The tubes are thoroughly vortexed and centrifuged (1000×g for 5 minutes). The supernatants are decanted into scintillation vials. After addition of 10 ml of a liquid scintillation cocktail (Ready Protein+, Beckman) radioactivity is counted using a Beckman liquid scintillation counter Model LS 7000. High radioactive counts correlate with enzymatic activity. The chromogenic cPLA2 enzyme assay used is analogous to Reynolds et al., Analytical Biochemistry, 217, 25-32 (1194).
(§2) (The results are in IC50 μM). (Compound A is a compound of formula II where R6 and R7 are hydrogen, and R5 is phenyl. Compound B is a compound of formula I where R1, R2 and R3 are hydrogen. Compound C is a compound of formula II wherein R6 and R7 are methyl, and R5 is p-methoxyphenyl. Compound D is a compound of formula II wherein R1 and R2 are hydrogen, and R5 is p-hydroxyphenyl.)

[2] = MCII mast cell toxicity assay (XTT); assay type: cell-based; details: mouse, mcii mast cells, 4-12 hours, 37° C., read-out: MCII Mast Cell Toxicity (IC50)
Excerpt: This toxicity assay is run in parallel with the MCII mast cell LTC4 assay and serves as an indicator of compound effects on the viability and metabolic activity of the MCII cells. This "toxicity" assay is based on the ability of dehydrogenase enzymes present in viable metabolically active cells to bioreduce the tetrazolium salt XTT yielding a colored, water soluble formazan product. (see, Roehm et al.) "An improved colorimetric assay for cell proliferation and viability utilzing the tetrazolium salt XTT. J. Immunol. Methods […] (1991).
A duplicate polystyrene 96-well tissue culture plate (Costar) is set up with sensitized MCII cells, EM95 ascites, media and dilutions of the test compound as described above. The complete media is supplemented with concanavalin A induced culture supernatants from the mouse helper T cell clone D10.G4, as a source of mast cell growth factors.
Wells of the toxicity assay plate are pulsed with 25 μl XTT (Sigma) plus phenazine methosulfate (Aldrich) giving a final concentration of 0.2 mg/ml XTT and 25 μM phenazine methosulfate. The plates are incubated at 37° C. in 10% CO2 for 4-12 hours and then production of the XTT formazan product determined by measuring the optical density of the wells at a wavelength of 450 nm. The positive control on each plate is stimulated MCII cells with dimethyl sulfoxide vehicle alone and the negative control is the same reaction mixture without cells. The background negative control value is subtracted from experimental and positive control values and the data are reported as percent of positive control.
as §2

cPLA2 [3] = biological target: T2, cPLA2; test: cPLA2 enzyme assay, chromogenic; assay type: biochemical
Protocol: as §1, with “The mixtures are briefly vortexed and the upper phase transferred to tubes containing 2 ml of heptane and 150 mg of Bio-Sil (Bio-Rad Laboratories) activated at 130° C. before use. The tubes are thoroughly vortexed and centrifuged (1000×g for 5 minutes). The supernatants are decanted into scintillation vials.” left out, “High radioactive counts correlate with enzymatic activity. The chromogenic cPLA2 enzyme assay used is analogous to Reynolds et al., Analytical Biochemistry, 217, 25-32 (1194).” left out

[4] = system: thromboxane B2 (TxB2) production, human plasma-depleted blood; test: Inhibition of TxB2 production by plasma-depleted blood; assay type: cell-based; details: read-out: Plasma DPLTD Blood TxB2 (IC50)
Protocol: Compounds are evaluated for their ability to inhibit production of leukotriene B4 (LTB4) and thromboxane B2 (TxB2) upon stimulation of human plasma-depleted blood with formyl-methionyl-leucyl-phenylalanine (FMLP) and thrombin. LTB4 is produced by neutrophils and TxB2 by platelets stimulated at their respective receptors with FMLP and thrombin. The assay is carried out in 1 ml deep well polypropylene 96-well plates (Beckman). For the tests ten ml of blood is collected in EDTA at a final concentration of 1.5 mg/ml. Then, 40 ml glucose phosphate buffer containing 0.1% gelatin is added and the suspension centrifuged at 900 g for 10 minutes at room temperature. The supernatant is discarded and the cells washed once with 50 ml buffer before resuspending them in 50 ml Krebs-Ringers-Henseleit Buffer containing 0.1% gelatin, 1 mM CaCl2, 1.1 mM MgCl2 (KRH buffer). Working solutions of test compounds are made by dissolving the material in DMSO at 10 mM and diluting with appropriate amounts of KRH buffer. An agonist solution is made containing 1 μM FMLP (sigma) and 10 units/ml of thrombin in KRH buffer (Enzyme Research Labs). […] The amount of LTB4 and TxB2 produced is determined by the use of a competitive enzyme immunoassay using commercial reagents from Cayman Chemical. […]

SMILES | IC50 (5-lipoxygenase) [µM] | IC50 (cPLA2 [1]) [µM] | CC50 [2] [µM] | IC50 (cPLA2 [3]) [µM] | IC50 [4] [µM] | IC50 (cPLA2 [1]; 14C-PC/DG liposomes, 37° C., 15 min, pH 7.5, read-out: C-PLA2 Enzyme, C14PC/DA6 (IC50)) [µM]
Oc1ccc(-c2cc3ccc(O)cc3s2)cc1 [Compound B] | 0.2 ± 0.007 | 7 ± 0.8 | < 10 |  |  | 
O=C(c1ccc2ccccc2c1)c1c(-c2ccc(O)cc2)sc2cc(O)ccc12 [Example 3, 6-hydroxyphenyl-2-(p-hydroxyphenyl)-(benzo(B)thien-3-yl)(β-napthyl)methanone] | 1 ± 0.5 | 2.3 ± 0.6 | > 10 | 122 |  | 
O=C(c1cccc2ccccc12)c1c(-c2ccc(O)cc2)sc2cc(O)ccc12 [Example 2, 6-hydroxyphenyl-2-(p-hydroxyphenyl)-(benzo(B)thien-3-yl)(α-napthyl)methanone] | 1.7 ± 0.9 | 4.8 ± 1.6 | > 10 |  |  | 
O=C(c1ccc(-c2ccccc2)cc1)c1c(-c2ccc(O)cc2)sc2cc(O)ccc12 [Example 1, 6-hydroxyphenyl-2-(p-hydroxyphenyl)-(benzo(B)thien-3-yl)(p-phenyl)phenyl methanone] |  | < 1.2 | > 10 | 146 |  | 
O=C(c1ccc(O)cc1)c1c(-c2ccc(O)cc2)sc2cc(O)ccc12 [Compound D] |  |  |  |  | > 9.8 | 
O=C(c1ccccc1)c1c(-c2ccc(O)cc2)sc2cc(O)ccc12 [Compound A] |  |  | 0.3 |  |  | 7.3 ± 0.5
